From ChEMBL document CHEMBL3627653, “Synthesis and biological evaluation of spiro[cyclopropane-1,3'-indolin]-2'-ones as potential anticancer agents” (Bioorg Med Chem Lett, 2015)
Each block holds one compound with its values, some of them ahead of it.

Columns and labels:
Format in all cases: functional, cell-based
MCF7 = experiment: Anticancer activity against human MCF7 cells assessed as reduction in cell viability incubated for 48 hrs by MTT assay; conditions: MCF7, 48 h
DU-145 = experiment: Anticancer activity against human DU145 cells assessed as reduction in cell viability incubated for 48 hrs by MTT assay; conditions: DU-145, 48 h
HeLa = experiment: Anticancer activity against human HeLa cells assessed as reduction in cell viability incubated for 48 hrs by MTT assay
A549 = experiment: Anticancer activity against human A549 cells assessed as reduction in cell viability incubated for 48 hrs by MTT assay; conditions: A549, 48 h
HT-29 = experiment: Anticancer activity against human HT-29 cells assessed as reduction in cell viability incubated for 48 hrs by MTT assay; conditions: HT-29, 48 h

Structure (SMILES): CCOC(=O)[C@H]1[C@H](C(O)c2ccc([N+](=O)[O-])cc2)C12C(=O)Nc1ccc(Br)cc12 (stereo partly drawn)
IC50 (MCF7): > 100 µM
IC50 (DU-145): 27.8 µM
IC50 (HeLa): 28.8 µM
IC50 (A549): 21.1 µM
IC50 (HT-29): 23.4 µM

Structure (SMILES): CCOC(=O)[C@@H]1[C@@H](C(=O)c2ccccc2)C12C(=O)Nc1ccccc12 (stereo partly drawn)
IC50 (MCF7): 2.95 µM
IC50 (DU-145): 1.69 µM
IC50 (HeLa): 7.24 µM
IC50 (A549): 4.16 µM
IC50 (HT-29): 2.75 µM

Structure (SMILES): CCOC(=O)[C@H]1C(C(=O)c2ccc(OC)cc2)C12C(=O)Nc1ccc(Cl)cc12 (stereo partly drawn)
IC50 (MCF7): 9.33 µM
IC50 (DU-145): 5.01 µM
IC50 (HeLa): 9.12 µM
IC50 (A549): 6.42 µM
IC50 (HT-29): 9.54 µM

Structure (SMILES): CCOC(=O)[C@H]1[C@H](C(=O)OCC)C12C(=O)Nc1ccc(Cl)cc12 (relative stereo)
IC50 (MCF7): 24 µM
IC50 (DU-145): 19.9 µM
IC50 (HeLa): 25.1 µM
IC50 (A549): 29 µM
IC50 (HT-29): 22.9 µM

Structure (SMILES): CCOC(=O)[C@H]1[C@H](C(=O)OCC)C12C(=O)Nc1ccc(Br)cc12 (relative stereo)
IC50 (MCF7): > 100 µM
IC50 (DU-145): 50.7 µM
IC50 (HeLa): 62.8 µM
IC50 (A549): > 100 µM
IC50 (HT-29): 30.9 µM

Structure (SMILES): CCOC(=O)[C@H]1[C@H](C(=O)OCC)C12C(=O)Nc1ccc(F)cc12 (relative stereo)
IC50 (MCF7): 36.8 µM
IC50 (DU-145): 24.3 µM
IC50 (HeLa): 84.2 µM
IC50 (A549): 78.2 µM
IC50 (HT-29): 36.6 µM

Structure (SMILES): CCOC(=O)[C@H]1[C@H](C(=O)OCC)C12C(=O)Nc1ccccc12 (relative stereo)
IC50 (MCF7): 57.5 µM
IC50 (DU-145): 18.6 µM
IC50 (HeLa): 61.3 µM
IC50 (A549): > 100 µM
IC50 (HT-29): 18.9 µM

Structure (SMILES): CCOC(=O)[C@H]1[C@H](C(=O)OCC)C12C(=O)Nc1ccc([N+](=O)[O-])cc12 (relative stereo)
IC50 (MCF7): 71.6 µM
IC50 (DU-145): 38 µM
IC50 (HeLa): 32.9 µM
IC50 (A549): > 100 µM
IC50 (HT-29): 50.1 µM

Structure (SMILES): CCOC(=O)[C@H]1[C@H](C(=O)OCC)C12C(=O)N(C)c1ccccc12 (relative stereo)
IC50 (MCF7): 32.1 µM
IC50 (DU-145): 39.8 µM
IC50 (HeLa): 32.2 µM
IC50 (A549): 74.2 µM
IC50 (HT-29): 26.9 µM

Structure (SMILES): CCOC(=O)[C@H]1[C@H](C(O)c2ccc(OC)cc2)C12C(=O)Nc1ccccc12 (relative stereo)
IC50 (MCF7): 4.78 µM
IC50 (DU-145): 1.94 µM
IC50 (HeLa): 5.78 µM
IC50 (A549): 27.5 µM
IC50 (HT-29): 2.29 µM

Structure (SMILES): CCOC(=O)[C@H]1[C@H](C(=O)c2ccc(Cl)cc2)C12C(=O)Nc1ccccc12 (relative stereo)
IC50 (MCF7): 18.6 µM
IC50 (DU-145): 15.8 µM
IC50 (HeLa): 19.9 µM
IC50 (A549): 12.9 µM
IC50 (HT-29): 23.7 µM

Structure (SMILES): CCOC(=O)[C@H]1[C@H](C(=O)c2ccc(OC)cc2)C12C(=O)Nc1ccccc12 (relative stereo)
IC50 (MCF7): 19.1 µM
IC50 (DU-145): 17.4 µM
IC50 (HeLa): 26.3 µM
IC50 (A549): 9.77 µM
IC50 (HT-29): 14.7 µM

Structure (SMILES): CCOC(=O)[C@H]1[C@H](C(=O)c2ccc3ccccc3c2)C12C(=O)Nc1ccccc12 (relative stereo)
IC50 (MCF7): 31.1 µM
IC50 (DU-145): 17.2 µM
IC50 (HeLa): 20 µM
IC50 (A549): 12.6 µM
IC50 (HT-29): 18 µM

Structure (SMILES): CCOC(=O)[C@H]1[C@H](C(=O)c2ccc([N+](=O)[O-])cc2)C12C(=O)Nc1ccccc12 (relative stereo)
IC50 (MCF7): 22.1 µM
IC50 (DU-145): 19.8 µM
IC50 (HeLa): 41.3 µM
IC50 (A549): 19.1 µM
IC50 (HT-29): 25.1 µM

Structure (SMILES): CCOC(=O)[C@H]1[C@H](C(=O)c2ccc(OC)c([N+](=O)[O-])c2)C12C(=O)Nc1ccccc12 (relative stereo)
IC50 (MCF7): 9.77 µM
IC50 (DU-145): 6.36 µM
IC50 (HeLa): 7.76 µM
IC50 (A549): 4.79 µM
IC50 (HT-29): 7.24 µM

Structure (SMILES): CCOC(=O)[C@H]1[C@H](C(=O)c2cc(OC)c(OC)c(OC)c2)C12C(=O)Nc1ccccc12 (relative stereo)
IC50 (MCF7): 50.1 µM
IC50 (DU-145): 15.8 µM
IC50 (HeLa): 32.8 µM
IC50 (A549): 17.7 µM
IC50 (HT-29): 8.51 µM

Structure (SMILES): CCOC(=O)[C@H]1[C@H](C(=O)c2cc(OC)c(OC)c(OC)c2)C12C(=O)Nc1ccc(Cl)cc12 (relative stereo)
IC50 (MCF7): 37.5 µM
IC50 (DU-145): 21.9 µM
IC50 (HeLa): 39.8 µM
IC50 (A549): 24.1 µM
IC50 (HT-29): 25.1 µM

Structure (SMILES): CCOC(=O)[C@H]1[C@H](C(=O)c2ccc(Cl)cc2)C12C(=O)Nc1ccc(Cl)cc12 (relative stereo)
IC50 (MCF7): 30.8 µM
IC50 (DU-145): > 100 µM
IC50 (HeLa): > 100 µM
IC50 (A549): 32.4 µM
IC50 (HT-29): 79.4 µM

Structure (SMILES): CCOC(=O)[C@H]1[C@H](C(=O)c2ccc(C)cc2)C12C(=O)Nc1ccc(Cl)cc12 (relative stereo)
IC50 (MCF7): 90.2 µM
IC50 (DU-145): > 100 µM
IC50 (HeLa): > 100 µM
IC50 (A549): > 100 µM
IC50 (HT-29): > 100 µM

Structure (SMILES): CCOC(=O)[C@H]1[C@H](C(=O)c2ccc(OC)c(OC)c2)C12C(=O)Nc1ccc(Cl)cc12 (relative stereo)
IC50 (MCF7): 20.3 µM
IC50 (DU-145): 8.31 µM
IC50 (HeLa): 13 µM
IC50 (A549): 7.07 µM
IC50 (HT-29): 9.92 µM

Structure (SMILES): CCOC(=O)[C@H]1[C@H](C(=O)c2ccc3ccccc3c2)C12C(=O)Nc1ccc(Cl)cc12 (relative stereo)
IC50 (MCF7): 4.89 µM
IC50 (DU-145): 5.24 µM
IC50 (HeLa): 7.76 µM
IC50 (A549): 6.16 µM
IC50 (HT-29): 5.01 µM

Structure (SMILES): CCOC(=O)[C@H]1[C@H](C(=O)c2ccc([N+](=O)[O-])cc2)C12C(=O)Nc1ccc(Cl)cc12 (relative stereo)
IC50 (MCF7): 4.26 µM
IC50 (DU-145): 2.88 µM
IC50 (HeLa): 10.7 µM
IC50 (A549): 3.59 µM
IC50 (HT-29): 2.95 µM

Structure (SMILES): CCOC(=O)[C@H]1[C@H](C(=O)c2ccccc2)C12C(=O)N(C)c1ccccc12 (relative stereo)
IC50 (MCF7): 13.2 µM
IC50 (DU-145): 7.94 µM
IC50 (HeLa): 19.5 µM
IC50 (A549): 7.24 µM
IC50 (HT-29): 16.1 µM

Structure (SMILES): CCOC(=O)[C@H]1[C@H](C(=O)c2ccc3ccccc3c2)C12C(=O)N(C)c1ccccc12 (relative stereo)
IC50 (MCF7): 75.9 µM
IC50 (DU-145): > 100 µM
IC50 (HeLa): > 100 µM
IC50 (A549): 98.5 µM
IC50 (HT-29): > 100 µM

Structure (SMILES): CCOC(=O)[C@H]1[C@H](C(=O)c2ccc(C)cc2)C12C(=O)N(C)c1ccccc12 (relative stereo)
IC50 (MCF7): 24.7 µM
IC50 (DU-145): 7.24 µM
IC50 (HeLa): 33.5 µM
IC50 (A549): 5.49 µM
IC50 (HT-29): 23.9 µM

Structure (SMILES): CCOC(=O)[C@H]1[C@H](C(=O)c2ccc([N+](=O)[O-])cc2)C12C(=O)N(C)c1ccccc12 (relative stereo)
IC50 (MCF7): 37.1 µM
IC50 (DU-145): 18.9 µM
IC50 (HeLa): 51.2 µM
IC50 (A549): 26.1 µM
IC50 (HT-29): 19.7 µM

Structure (SMILES): CCOC(=O)[C@H]1[C@H](C(=O)c2ccc(Cl)cc2)C12C(=O)N(C)c1ccccc12 (relative stereo)
IC50 (MCF7): 12.6 µM
IC50 (DU-145): 6.3 µM
IC50 (HeLa): 12.6 µM
IC50 (A549): 6.56 µM
IC50 (HT-29): 8.51 µM

Structure (SMILES): CCOC(=O)[C@H]1[C@H](C(=O)c2ccc(OC)cc2)C12C(=O)N(C)c1ccccc12 (relative stereo)
IC50 (MCF7): 18.2 µM
IC50 (DU-145): 15 µM
IC50 (HeLa): 15.4 µM
IC50 (A549): 5.88 µM
IC50 (HT-29): 13.2 µM

Structure (SMILES): CCOC(=O)[C@H]1[C@H](C(=O)c2ccc(OC)cc2)C12C(=O)Nc1ccc(Br)cc12 (relative stereo)
IC50 (MCF7): 41.6 µM
IC50 (DU-145): 31.7 µM
IC50 (HeLa): 45.1 µM
IC50 (A549): 79.4 µM
IC50 (HT-29): 33.7 µM

Structure (SMILES): CCOC(=O)[C@H]1[C@H](C(=O)c2ccc3ccccc3c2)C12C(=O)Nc1ccc(Br)cc12 (relative stereo)
IC50 (MCF7): 29.3 µM
IC50 (DU-145): 36.9 µM
IC50 (HeLa): > 100 µM
IC50 (A549): 25 µM
IC50 (HT-29): 79.4 µM

Structure (SMILES): CCOC(=O)[C@H]1[C@H](C(=O)c2ccc(Cl)cc2)C12C(=O)Nc1ccc(Br)cc12 (relative stereo)
IC50 (MCF7): 12.2 µM
IC50 (DU-145): 8.12 µM
IC50 (HeLa): 62.1 µM
IC50 (A549): 15.8 µM
IC50 (HT-29): 8.47 µM

Structure (SMILES): CCOC(=O)[C@H]1[C@H](C(=O)c2ccc([N+](=O)[O-])cc2)C12C(=O)Nc1ccc(Br)cc12 (relative stereo)
IC50 (MCF7): > 100 µM
IC50 (DU-145): 31.6 µM
IC50 (HeLa): 68.9 µM
IC50 (A549): 30.5 µM
IC50 (HT-29): 42.6 µM

IC50 (DU-145): 1.94 µM
IC50 (HeLa): 1.51 µM
IC50 (HT-29): 0.93 µM
Structure (SMILES): COc1cccc2c1C(=O)c1c(O)c3c(c(O)c1C2=O)C[C@@](O)(C(=O)CO)C[C@@H]3O[C@H]1C[C@H](N)[C@H](O)[C@H](C)O1 [DOXORUBICIN]
